According to paper PMC12446476 (Nature Communications, 2025):
Several values for one entry are separate records, joined by “and”; a condition that tells them apart may be missing. Equal values may be shown once.

Test system: N. gonorrhoeae
Assay: N. gonorrhoeae murine vaginal infection model, efficacy
Assay type: in vivo, mouse
Conditions: vaginal lavage, individual mice, BID
Description: The N. gonorrhoeae female mouse vaginal model[45] was performed in accordance with the Guide for Care and Use of Laboratory Animals[75]. Animal rooms were maintained at a temperature range of 20–24 °C and humidity between 30% and 70%, with 12 h light/dark cycles. Ovariectomized BALB/c female mice (5–6 weeks, BioLASCO Taiwan Co., Ltd.) were treated with estradiol (0.23 mg/mouse) two days before infection and on the day of infection. Ovariectomized mice were used to avoid staging mice before treating them with estradiol. Beginning two days prior to infection and maintained until the end of the study, animals were treated twice daily with streptomycin (1.2 mg/mouse) and vancomycin (0.6 mg/mouse) each via intraperitoneal (IP) injection and received trimethoprim sulfate in the drinking water (0.4 mg/mL) to control vaginal microflora. Animals were anesthetised with pentobarbital (80 mg/kg), the vagina was rinsed with 50 mM HEPES (pH 7.4), and then inoculated with N. gonorrhoeae in pre-warmed PBS (0.02 mL/mouse containing ~1 × 10^5 CFU).
Control groups received either a single IP injection of ceftriaxone or 5% dextrose (vehicle) twice daily. Animals were sacrificed via CO2 asphyxiation at either 2 h (baseline), 26 and/or 50 h post-infection. Vaginal lavage was performed twice with 200 µL GC broth containing 0.05% saponin to recover bacteria. Bacterial burden in the lavage fluids was determined by performing 10-fold serial dilutions and plating on chocolate agar plates. Four strains were assessed using the model; ATCC 700825 is naturally streptomycin-resistant, whereas AR Bank0179-15, AR Bank0181-17 and WHO X-07 are derivatives of AR Bank0179, AR Bank0181 and WHO X, respectively, that were engineered for streptomycin resistance for use in the model.

[1] = N. gonorrhoeae AR Bank0179-15, Debio 1453P 20 mg/kg PO, 48h
[2] = N. gonorrhoeae AR Bank0179-15, Debio 1453P 30 mg/kg PO, 24h
[3] = N. gonorrhoeae AR Bank0179-15, Debio 1453P 30 mg/kg PO, 48h
[4] = N. gonorrhoeae AR Bank0179-15, Debio 1453P 40 mg/kg PO, 24h
[5] = N. gonorrhoeae AR Bank0179-15, Debio 1453P 40 mg/kg PO, 48h
[6] = N. gonorrhoeae AR Bank0179-15, Debio 1453P 80 mg/kg PO, 24h
[7] = N. gonorrhoeae AR Bank0179-15, Debio 1453P 80 mg/kg PO, 48h
[8] = N. gonorrhoeae AR Bank0181-17, Debio 1453P 20 mg/kg PO, 24h
[9] = N. gonorrhoeae AR Bank0181-17, Debio 1453P 30 mg/kg PO, 24h
[10] = N. gonorrhoeae AR Bank0181-17, Debio 1453P 40 mg/kg PO, 24h
[11] = N. gonorrhoeae AR Bank0181-17, Debio 1453P 80 mg/kg PO, 24h
[12] = N. gonorrhoeae ATCC 700825, Debio 1453P 10 mg/kg PO, 24h
[13] = N. gonorrhoeae ATCC 700825, Debio 1453P 20 mg/kg PO, 24h

SMILES: Cc1c(CN(C)C(=O)/C=C/c2cnc3c(c2)N[C@H](C)[C@H](OP(=O)([O-])[O-])C(=O)N3)oc2ccccc12.[Na+].[Na+] [Debio 1453 P]
- CFU/mL lavage fluid [1]: <5 CFU/mL and 21100 CFU/mL and 105 CFU/mL and 6100 CFU/mL
- Log10(CFU/mL lavage fluid) [1]: <0.70 Log10(CFU/mL lavage fluid) and 4.32 Log10(CFU/mL lavage fluid) and 2.02 Log10(CFU/mL lavage fluid) and 3.79 Log10(CFU/mL lavage fluid)
- CFU/mL lavage fluid [2]: <5 CFU/mL and 545 CFU/mL and 85 CFU/mL and 5500 CFU/mL and 125 CFU/mL
- Log10(CFU/mL lavage fluid) [2]: <0.70 Log10(CFU/mL lavage fluid) and 2.74 Log10(CFU/mL lavage fluid) and 1.93 Log10(CFU/mL lavage fluid) and 3.74 Log10(CFU/mL lavage fluid) and 2.1 Log10(CFU/mL lavage fluid)
- CFU/mL lavage fluid [3]: <5 CFU/mL and 205 CFU/mL
- Log10(CFU/mL lavage fluid) [3]: <0.70 Log10(CFU/mL lavage fluid) and 2.31 Log10(CFU/mL lavage fluid)
- CFU/mL lavage fluid [4]: 7600 CFU/mL and <5 CFU/mL and 200 CFU/mL and 115 CFU/mL
- Log10(CFU/mL lavage fluid) [4]: 3.88 Log10(CFU/mL lavage fluid) and <0.70 Log10(CFU/mL lavage fluid) and 2.3 Log10(CFU/mL lavage fluid) and 2.06 Log10(CFU/mL lavage fluid)
- CFU/mL lavage fluid [5]: 65 CFU/mL and <5 CFU/mL
- Log10(CFU/mL lavage fluid) [5]: 1.81 Log10(CFU/mL lavage fluid) and <0.70 Log10(CFU/mL lavage fluid)
- CFU/mL lavage fluid [6]: <5 CFU/mL
- Log10(CFU/mL lavage fluid) [6]: <0.70 Log10(CFU/mL lavage fluid)
- CFU/mL lavage fluid [7]: <5 CFU/mL
- Log10(CFU/mL lavage fluid) [7]: <0.70 Log10(CFU/mL lavage fluid)
- CFU/mL lavage fluid [8]: 1880000 CFU/mL and 790000 CFU/mL and 670000 CFU/mL and 810000 CFU/mL and 720000 CFU/mL
- Log10(CFU/mL lavage fluid) [8]: 6.27 Log10(CFU/mL lavage fluid) and 5.9 Log10(CFU/mL lavage fluid) and 5.83 Log10(CFU/mL lavage fluid) and 5.91 Log10(CFU/mL lavage fluid) and 5.86 Log10(CFU/mL lavage fluid)
- CFU/mL lavage fluid [9]: 380000 CFU/mL and 1120000 CFU/mL and 11300 CFU/mL and 201000 CFU/mL and 620000 CFU/mL
- Log10(CFU/mL lavage fluid) [9]: 5.58 Log10(CFU/mL lavage fluid) and 6.05 Log10(CFU/mL lavage fluid) and 4.05 Log10(CFU/mL lavage fluid) and 5.3 Log10(CFU/mL lavage fluid) and 5.79 Log10(CFU/mL lavage fluid)
- CFU/mL lavage fluid [10]: 11500 CFU/mL and 123000 CFU/mL and 200000 CFU/mL and 830000 CFU/mL and 730000 CFU/mL
- Log10(CFU/mL lavage fluid) [10]: 4.06 Log10(CFU/mL lavage fluid) and 5.09 Log10(CFU/mL lavage fluid) and 5.3 Log10(CFU/mL lavage fluid) and 5.92 Log10(CFU/mL lavage fluid) and 5.86 Log10(CFU/mL lavage fluid)
- CFU/mL lavage fluid [11]: 275 CFU/mL
- Log10(CFU/mL lavage fluid) [11]: 2.44 Log10(CFU/mL lavage fluid)
- CFU/mL lavage fluid [12]: 50000 CFU/mL and 21700 CFU/mL and 23000 CFU/mL and 15500 CFU/mL and 490000 CFU/mL
- Log10(CFU/mL lavage fluid) [12]: 4.7 Log10(CFU/mL lavage fluid) and 4.34 Log10(CFU/mL lavage fluid) and 4.36 Log10(CFU/mL lavage fluid) and 4.19 Log10(CFU/mL lavage fluid) and 5.69 Log10(CFU/mL lavage fluid)
- CFU/mL lavage fluid [13]: 7500 CFU/mL and 5100 CFU/mL and 204000 CFU/mL and 15100 CFU/mL
- Log10(CFU/mL lavage fluid) [13]: 3.88 Log10(CFU/mL lavage fluid) and 3.71 Log10(CFU/mL lavage fluid) and 5.31 Log10(CFU/mL lavage fluid) and 4.18 Log10(CFU/mL lavage fluid)
